Source: patent publication US7833964B2, “Methods of reducing visceral fat by increasing levels of insulin-like growth factor-I (IGF-I)” (Tercica, Inc., priority 2003, dated 2010)
Values joined by “and” are separate entries in the source; they are usually repeats but may differ in a detail not shown here. Equal values may be shown once.

Tests used:
[1] = Abdominal CT scan: visceral (VAT) and subcutaneous (SAT) adipose tissue, abdominal perimeter; assay type: in vivo, human; settings: for change in abdominal perimeter by CT scan, mean±SEM: 12 weeks
Experimental: All CT scans were performed on GE Sytec 4000 CT scanners or an equivalent scanner.
An initial Abdominal Scan was performed using the following procedure: • 1. After the thigh scan was complete, a small triangular wedge pillow was placed under the subject's knees to help tilt the spine to the correct position. The arms were crossed over the chest/neck with elbows up and out of the way of the abdomen. The subject's underpants were pulled down so that the elastic of the underwear was well out of the way of the site where the scan was taken. • 2. The technician positioned the bed in the scanner so that a lateral topogram could be taken that included at least T12 through L5 of the spine. This picture was recorded on film. • 3. The location of the midsection of L3 was identified. • 4. A 10-mm slice at the level of the midpoint of L3 (angle must be zero so that the slice was perpendicular) was taken at the same settings as were used for the thigh slice, with the exception of the DFOV, which was 35 or 45 (35 for a small person and 45 for a large person).
The entire cross section of the abdomen was on the screen. If the entire abdomen was not on the screen, the picture was reconfigured. Once the entire abdomen was on the screen, the technician downloaded it onto the disk and verified that the image was actually on the disk. This was then recorded on film. • 5. The technician sent the film to the printer at this point. It was a requirement that each film had four pictures, and the film had the lateral topogram of the spine and the slice. • 6. The technician then recorded the exam number, the series number, and the image number of slice. • 7. The subject was then removed from the table if there were no more measurements to obtain and the film was collected.
The same procedures were then followed for the repeat abdominal scans with identical settings and locations being used for the repeat scans.
Slices were downloaded onto the scanner and then retrieved via optical disk (or the Internet if possible) to a computer for analysis. During analysis, the area of intra-abdominal and subcutaneous fat as well as oblique, psoas, quadratum laborum, and sacrospinalis muscles were measured. The images were digitized by optical density to separate bone, muscle, and fat compartments using a modified version of the NIH IMAGE program. Pixel units were converted to area measurements using an internal calibration standard. Digitized images were analyzed in a blinded fashion. The coefficient of variation of repeated analysis of a single scan is <1.5%.
Another independent measurement was that the CT scan assessed the abdominal diameter and the abdominal perimeter (e.g., belt size). The abdominal perimeter in subjects treated with glyburide alone was unchanged (−0.3±0.8 cm, mean±SEM) but in subjects treated with IGF-I at 20 micrograms/kg it was reduced (−1.4±0.8 cm) and was reduced even more in subjects treated with 40 micrograms/kg to (−2.9±1.3 cm). This reduction in “girth” caused by high dose IGF-I was, in layman's terms over an inch, or one belt notch, clearly a significant effect in only 12 weeks.
The body components contributing to these beneficial effects of IGF-I on body weight, BMI and girth were then analyzed by studying the changes in body composition as measured by computerized scanning. Two scans were performed. A scan was performed before treatment with IGF-I and another scan was performed after treatment with IGF-I. These two scans were analyzed by measuring the area of fat so that the effect of treatment with IGF-I could be ascertained.
The effect of IGF-I on body fat was estimated using the visceral adipose tissue (VAT) in abdomen and the subcutaneous adipose tissue (SAT) in the abdomen. The absolute changes in fat and the percent changes in fat were both analyzed. The percent changes were analyzed to guard against subjects with larger amounts of fat being given undue statistical weight in the analyses. […]

[2] = ETDRS retinopathy score by fundus photography; assay type: in vivo, human
Experimental: Because concern existed regarding the effects of rhIGF-I on two types of ocular findings—progression of diabetic retinopathy and optic disc swelling—the occurrence of such findings was recorded as a measure of safety. An ophthalmologic visit for dilated funduscopic examination was performed during the screening period. Additionally, fundus photography was performed on each subject prior to initiation of treatment with rhIGF-I or placebo between day 7 and day 1. When optic disc swelling was detected on the initial baseline photograph, the subject was terminated from the study immediately. If the baseline photograph was scored at an Early Treatment Diabetic Retinopathy Study (ETDRS) scale of greater than 35 in either eye, the subject was also not allowed to progress further in the study.
Both the ophthalmologic examination and fundus photography were repeated at the completion of the treatment period or at the early termination visit in the event of premature termination. The ophthalmologic exam was performed within 3 days of the fundus photography. In the event that optic disc swelling was detected on the fundus photograph obtained at the week 12 or early termination visits, subjects were asked to return for repeat fundus photography at 1-3 months following discontinuation from the study, and again at 3-month intervals until the optic disc swelling resolved.
Fundus photographs, obtained for each subject at week 12 or at the early termination visit, were compared with the photographs obtained prior to treatment in order to evaluate the development of retinopathy during the course of the study. The photographs for each eye were graded using the final version of the ETDRS scale. The resulting scores for each eye were combined to yield the ETDRS person score. A change between day 1 and week 12 (or early termination) in the full scale ETDRS person score of three or more levels (5 units) was recorded as a progression of retinopathy and as an adverse event.
A change in ETDRS level was the maximum difference between baseline and on-study or post-treatment values. A negative change indicated improvement.

[3] = glyburide active + IGF-I placebo
[4] = glyburide active + IGF-I placebo, abdominal CT, change from baseline
[5] = glyburide 10 mg BID + rhIGF-I placebo (n = 29)
[6] = IGF-I 20 μg/kg, with glyburide or glyburide placebo per label
[7] = IGF-I 40 μg/kg, with glyburide or glyburide placebo per label
[8] = IGF-I 20 μg/kg BID, with glyburide (n = 36) or glyburide placebo (n = 35)
[9] = IGF-I 40 μg/kg BID, with glyburide (n = 36) or glyburide placebo (n = 33)

Compound: COc1ccc(Cl)cc1C(=O)NCCc1ccc(S(=O)(=O)NC(=O)NC2CCCCC2)cc1 [Glyburide, glyburide, reference compound]
- Mean SAT % Change (SEM) [1, 3]: 1% and 1.0 (1.9) %
- Mean VAT % Change (SEM) [1, 3]: 9% and 9.3 (3.9) %
- Change in SAT, mean (SEM) [1, 4]: 2.0 (5.6) cm^2
- Change in VAT, mean (SEM) [1, 4]: 13.6 (6.4) cm^2
- change in abdominal perimeter by CT scan, mean±SEM ([1]; glyburide alone): −0.3±0.8 cm
- subjects showing an improvement in retinal score ([2]; Placebo/glyburide group): one
- Change in ETDRS levels: 1- to 2-step Progression [2, 5]: 8 (28) n (%)
- Change in ETDRS levels: No change [2, 5]: 19 (66) n (%)
- Change in ETDRS levels: −1- to −2-step progression (negative change = improvement) [2, 5]: 1 (3) n (%)
- Change in ETDRS levels: ≧3-step progression [2, 5]: 1 (3) n (%)

Compound: IGF-I: recombinant human insulin-like growth factor-I from Genentech; sterile benzyl alcohol-preserved solution, 70 mg in 7 mL acetate/NaCl, pH 5.4; given SC
- Change in SAT, mean (SEM) [1, 6]: −12.3 (4.1) cm^2
- Change in VAT, mean (SEM) [1, 6]: 1.0 (9.0) cm^2
- Mean SAT % Change (SEM) [1, 6]: −6.0 (2.6) %
- Mean VAT % Change (SEM) [1, 6]: 1.0 (4.0) %
- Change in SAT, mean (SEM) [1, 7]: −16.1 (5.4) cm^2
- Change in VAT, mean (SEM) [1, 7]: −20.0 (7.6) cm^2
- Mean SAT % Change (SEM) [1, 7]: −6.4 (2.5) %
- Mean VAT % Change (SEM) [1, 7]: −9.4 (3.9) %
- visceral fat area reduced by ([1]; IGF-I alone at 40 μg/kg): ~10%
- change in abdominal perimeter by CT scan, mean±SEM ([1]; IGF-I at 20 micrograms/kg): −1.4±0.8 cm
- change in abdominal perimeter by CT scan, mean±SEM ([1]; IGF-I at 40 micrograms/kg): −2.9±1.3 cm
- Change in ETDRS levels: 1- to 2-step Progression [2, 8]: 4 (11) n (%)
- Change in ETDRS levels: No change [2, 8]: 24 (69) n (%)
- Change in ETDRS levels: −1- to −2-step progression (negative change = improvement) [2, 8]: 6 (17) n (%)
- Change in ETDRS levels: ≧3-step progression [2, 8]: 1 (3) n (%)
- subjects showing an improvement in retinal score ([2]; IGF-I 20 μg/kg BID, with glyburide or placebo per label): 6 subjects
- Change in ETDRS levels: 1- to 2-step Progression [2, 9]: 7 (21) n (%)
- Change in ETDRS levels: No change [2, 9]: 20 (61) n (%)
- Change in ETDRS levels: −1- to −2-step progression (negative change = improvement) [2, 9]: 5 (15) n (%)
- Change in ETDRS levels: ≧3-step progression [2, 9]: 0 n (%)
- subjects showing an improvement in retinal score ([2]; IGF-I 40 μg/kg BID, with glyburide or placebo per label): 5 subjects
- progression of retinopathy (increases in the ETDRS scores) ([2]; IGF-I 20 or 40 μg/kg BID, 12 weeks, type II DM subjects): did not cause a progression of retinopathy
